# Assay: Radiochemical purity by HPLC on storage at room temperature
# Format: physicochemical
# Conditions: 4 hours at room temperature
# Method: The labeling efficiency was analyzed by instant thin layer chromatography (iTLC) and was typically >98%. For iTLC analysis, 1 μL of diluted labeling solution was applied to a strip of iTLC-SA chromatography paper (Agilent P/N A120B12, 114×2.5 mm) and developed in 0.1M citrate buffer (8 cm solvent migration) to assess free ^177Lu (Rf >0.5) and [^177Lu]-6555 (Rf ˜0). The iTLC strips were analyzed using an Eckert & Ziegler AR-2000 Radio-TLC Imaging Scanner. The radiochemical purity was analyzed by high performance chromatography (HPLC) and was typically >90%. Briefly, the product was analyzed using a Phenomenex Luna 3.0 μm C18(2), 100A, 150 mm×4.6 mm column. Eluent A: 50 mM ammonium acetate in water, eluent B: acetonitrile. Gradient: 2% B from 0-5 min; 2% to 26% B from 5-20 min; 26% to 98% B from 20-25 min; 98% to 2% B from 25-26 min; 2% B from 26-30 min. Flow rate: 1.0 mL/min, Radio-HPLC detector: NaI (Eckert & Zeigler FC-1000), UV: 215 nm. The radiochemical purity remained >90% for three days at room temperature.
# The above depicted radiopharmaceutical [^177Lu]-6952 can be prepared as described in Example 19 using the radiochemical precursor 6952 (Example 14 above). The labeling efficiency was analyzed by instant thin layer chromatography (iTLC) and was typically >98%. […] The iTLC strips were analyzed using an Eckert & Ziegler AR-2000 Radio-TLC Imaging Scanner. The radiochemical purity was analyzed by high performance chromatography (HPLC) and was typically >90%. Briefly, the product was analyzed using a Phenomenex Luna 3.0 m C18(2), 100A, 150 mm×4.6 mm column. […]
# The labeling efficiency was analyzed by instant thin layer chromatography (iTLC) and was typically >95%. […] The iTLC strips were analyzed using an Eckert & Ziegler AR-2000 Radio-TLC Imaging Scanner. The radiochemical purity was analyzed by high performance chromatography (HPLC) and was typically >95%. Briefly, the product was analyzed using a Phenomenex Luna 3.0 m C18(2), 100Å, 150 mm×4.6 mm column. […]
# The labeling efficiency was analyzed by instant thin layer chromatography (iTLC) and was typically >95%. […]
compound,measurement,value
C[C@@H](NC(=O)c1ccc(CNC(=O)CN2CCN3CCN4CCN(CC2)CC(=O)[O][Ga]([O]C(=O)C3)[O]C(=O)C4)cc1)C(=O)N1CCC[C@H]1B(O)O [[^68Ga]-6555],radiochemical purity remained,> 95%

# From patent US11707539B2, “FAP-targeted radiopharmaceuticals and imaging agents, and uses related thereto” (Trustees of Tufts College, priority 2020, dated 2023)
